Results published in patent US20200325178A1, “PEPTIDE NUCLEIC ACID MOLECULES FOR TREATMENT OF GRAM POSITIVE BACTERIAL INFECTION” (priority 2017, published 2020).

Columns and labels:
[1] = tested on: MSSA clinical isolates and ATCC strains; test: MIC and MBC against MSSA clinical isolates and ATCC strains; type: cell-based, Staphylococcus aureus; parameters: MIC: unit not given here
Procedure: (§1) Bioscreen-C instrument was used to detect the MIC and MBC of PNA-CPP derivatives against S. aureus MSSA strains. Different concentrations of PNA-CPP derivatives were prepared in 10 mM of sodium bicarbonate buffer pH-7.4 and added to ˜5.0 Log 10 CFUs in a Honey comb Bioscreen-C plate.
After the growth curve assays, the number of colony forming units (CFU) were counted to determine the MIC and MBC of each PNA-CPP derivative against MSSA.
(§2) Minimum inhibitory concentration (MIC) analyses were performed as described in Clinical and Laboratory Standards Institute, Methods for Dilution Antimicrobial Susceptibility Tests for Bacteria that Grow Aerobically, 7th ed.; Approved Standard M7-A7; CLSI: Wayne, Pa., USA, 2006; volume 26, No. 2. Vancomycin and Oxacillin were used as controls. MIC was determined as the lowest concentration of agent that inhibits bacterial growth detected at A420-580 nm.

[2] = tested on: S. aureus (ATCC BAA-1556); test: Murine thigh infection model; type: in vivo; settings: neutropenic CD-1 mice; 25 mg/kg, 0.2 ml SC, +1 hr; 24 hrs
Procedure: Female 5-6 week old CD-1 (18-22 gm) were used in this study. Mice were quarantined for 48 hours before use and housed in groups of 5 with free access to food and water during the study.
The animals were made neutropenic by administration of cyclophosphamide on Days −4 and −1. On Days −4 150 mg/kg of cyclohsphamide administered by intraperitoneal route and 100 mg/kg was administered on Days −1. Days listed are referenced from the date of infection (study day-Day 0).
On Day 0, animals were inoculated intramuscularly (0.1 ml/thigh) with ˜1×10^5 CFU/mouse of S. aureus (ATCC BAA-1556) into right thigh. […] Group-3 of mice were administered with vancomycin at 25 mg/kg via subcutaneous route. Group-4 of mice administered with buffer and group-5 used as the inoculation control.
Mice were euthanized by CO2 inhalation and thighs were removed, and placed in 2 ml of sterile PBS, homogenized, serially diluted and plated to determine the CFU counts. Plates were incubated 18-24 hours and CFUs were counted.
Colony were counted and the number of colonies is converted to CFU/thigh by multiplying the number of colonies by the volume of the thigh homogenate spotted and the dilution at which the colonies were counted (5-50 colonies/spot). All count data were transformed into logo CFU/thigh for calculation of means and standard deviations.

[3] = tested on: S. aureus MSSA strains; test: Bioscreen-C dose response growth curve of MSSA over 24 hours; type: cell-based, Staphylococcus aureus; settings: HCl salts, doses from 100 μg downwards, 10 mM sodium bicarbonate buffer pH-7.4, OD 420-580 nm
Procedure: as §1
Compound I-V were assayed against MSSA. FIG. 12-16 show a dose response growth curve of MSSA in presence of increasing concentrations of Compound I-HCl (FIG. 12), Compound II-HCl (FIG. 13), Compound III-HCl (FIG. 14), Compound IV-HCl (FIG. 15), and Compound V-HCl (FIG. 16), determined in a Bioscreen-C spectrophotometer.

[4] = tested on: MRSA clinical isolates and ATCC strains; test: MIC and MBC against MRSA clinical isolates and ATCC strains; type: cell-based, Staphylococcus aureus; parameters: unit not given here
Procedure: (§3) Bioscreen-C instrument was used to detect the MIC and MBC of PNA-CPP derivatives against S. aureus MRSA strains. Different concentration of PNA-CPP derivatives were prepared in 10 mM of sodium bicarbonate buffer pH-7.4 and added to ˜5.0 Log 10 CFUs in a Honey comb Bioscreen-C plate.
After the growth curve assays, the number of colony forming units (CFU) were counted to determine the MIC and MBC of each PNA-CPP derivative against MRSA.
as §2, with “Vancomycin and Oxacillin were used as controls.” left out

[5] = tested on: S. aureus MRSA strains; test: Bioscreen-C dose response growth curve of MRSA over 24 hours; type: cell-based, Staphylococcus aureus; settings: HCl salts, doses from 100 μg downwards, 10 mM sodium bicarbonate buffer pH-7.4, OD 420-580 nm
Procedure: as §3
Compound I-V were assayed against MRSA. FIG. 6-10 show a dose response growth curve of MRSA in presence of increasing concentrations of Compound I-HCl (FIG. 6), Compound II-HCl (FIG. 7), Compound III-HCl (FIG. 8), Compound IV-HCl (FIG. 9), and Compound V-HCl (FIG. 10), determined in a Bioscreen-C spectrophotometer.

[6] = Single ascending intravenous dose tolerability (MTD) in mice; type: in vivo; settings: 10 mg/kg single intravenous bolus dose
Procedure: Single ascending intravenous (IV) dose study was performed to determine tolerability of the drug in mice.
Initially, Compound I-HCl and Compound IV-HCl were administered with a 10 mg/kg intravenous bolus dose using a 10 mL/kg dose volume (0.2 mL) and observed the effects before proceeding to the next higher dose. […] However, higher concentration (>15 mg/kg) had shown adverse effect and death in mice within 30 mins of administration of the drug.

[7] = tested on: MRSA; test: In vitro assay of emergence of resistance, MRSA, 8 days; type: cell-based, S. aureus; settings: 6.25 μg (twice MBC) in one ml Mueller Hinton broth, 37° C., through Day 8
Procedure: (§4) To determine the development of resistance in MRSA and MSSA strains against Compound I-HCl and Compound IV-HCl, an in vitro assay was performed. Twice the amount of MBC of Compound I-HCl (6.25 μg) and Compound IV-HCl (6.25 μg) were mixed with ˜5.0 log 10 CFUs in one ml of Mueller Hinton broth and incubated for 8 days at 37° C. Eight tubes of culture were used for each drug and bacterial strains. At 24 hours of interval, culture tubes were centrifuged and spent media were replaced with fresh media in presence of Compound I-HCl and Compound IV-HCl and further incubated to observe the growth of S. aureus strains. At 24 hours interval, one set of culture tube exposed to drugs were selected and a fraction of the culture used to plate on agar plates to observe the reduction of CFU counts as compared to untreated control. The rest of the culture samples were allowed to grow without any drug for additional 24 hours to observe the growth of S. aureus strains. One set of culture tubes without drug was used as the positive control.

[8] = tested on: MSSA; test: In vitro assay of emergence of resistance, MSSA, 8 days; type: cell-based, S. aureus; settings: 6.25 μg (twice MBC) in one ml Mueller Hinton broth, 37° C., through Day 8
Procedure: as §4
The assays above were also performed using MSSA strains and Compounds I and IV.

[9] = MSSA table, isolate MRSA#16 [sic]
[10] = MSSA table, isolate MRSA#25 [sic]
[11] = MSSA table, isolate MRSA#27 [sic]
[12] = MSSA table, isolate MRSA#34 [sic]
[13] = MSSA table, isolate MRSA#38 [sic]
[14] = MSSA table, isolate MRSA#57 [sic]
[15] = MSSA table, isolate MRSA#60 [sic]
[16] = MSSA table, isolate printed MRSA#49
[17] = MSSA table, isolate printed MRSA#61

Question: What does the source list for `Cc1onc(-c2ccccc2)c1C(=O)N[C@@H]1C(=O)N2[C@@H]1SC(C)(C)[C@@H]2C(=O)O` [Oxacillin, reference compound]?
Answer: MIC [1, 9]: 2 ∞g; MIC [1, 10]: 2 ∞g; MIC [1, 11]: 2 ∞g; MIC [1, 12]: 2 ∞g; MIC [1, 13]: 2 ∞g; MIC ([1]; MSSA table, isolate MRSA#55): 2 ∞g; MIC [1, 14]: 4 ∞g; MIC [1, 15]: 2 ∞g; MIC [1, 16]: 2 ∞g; MIC [1, 17]: 2 ∞g; MIC ([1]; strain BAA 1721): <2 ∞g

Question: For `CN[C@H](CC(C)C)C(=O)N[C@H]1C(=O)N[C@@H](CC(N)=O)C(=O)N[C@H]2C(=O)N[C@H]3C(=O)N[C@H](C(=O)N[C@H](C(=O)O)c4cc(O)cc(O)c4-c4cc3ccc4O)[C@H](O)c3ccc(c(Cl)c3)Oc3cc2cc(c3O[C@@H]2O[C@H](CO)[C@@H](O)[C@H](O)[C@H]2O[C@H]2C[C@](C)(N)[C@H](O)[C@H](C)O2)Oc2ccc(cc2Cl)[C@H]1O` [Vancomycin, reference compound], which “Mean Log 10 CFU/Thigh” value [2] is on record?
Answer: 4.39 Log 10 CFU/Thigh

Question: And the “Mean Log 10 Change vs. 1 hr” value [2]?
Answer: −1.23 Log 10

Question: And the “Mean Log 10 Change vs. 24 hr (vehicle)” value [2]?
Answer: −4.14 Log 10

Question: And the MIC [1, 9]?
Answer: 5 ∞g

Question: What about the MIC [1, 10] of the same compound?
Answer: 10 ∞g

Question: And the MIC [1, 11]?
Answer: 10 ∞g

Question: What about the MIC [1, 12] of the same compound?
Answer: 5 ∞g

Question: What about the MIC [1, 13] of the same compound?
Answer: 10 ∞g

Question: What about the MIC ([1]; MSSA table, isolate MRSA#55) of the same compound?
Answer: 10 ∞g

Question: What about the MIC [1, 14] of the same compound?
Answer: 20 ∞g

Question: And the MIC [1, 15]?
Answer: 10 ∞g

Question: And the MIC [1, 16]?
Answer: 10 ∞g

Question: And the MIC [1, 17]?
Answer: 5 ∞g

Question: What about the MIC ([1]; strain BAA 1721) of the same compound?
Answer: 10 ∞g

Question: What does the source list for “Compound II: PNA-CPP conjugate: PNA SEQ ID NO: 51, AEA linker, CPP BXRXRRXRRXRRXR; FIG. 2 (CGTCATACGCGGTCC; all peptide nucleic acid (PNA); PNA conjugated to cell-penetrating peptide BXRXRRXRRXRRXR via AEA linker, end not given here)”?
Answer: lowest dose at which no MSSA growth was observed (growth curve) [3]: 6.25 µg; MBC [1, 9]: 3.25 ∞g; MIC [1, 9]: 1.56 ∞g; MBC [1, 10]: 3.25/3.25 ∞g; MIC [1, 10]: 3.25/3.25 ∞g; MBC [1, 11]: 1.56 ∞g; MIC [1, 11]: 0.78 ∞g; MBC [1, 12]: 3.25/3.25 ∞g; MIC [1, 12]: 3.25/3.25 ∞g; MBC [1, 13]: 3.25/3.25 ∞g; MIC [1, 13]: 3.25/3.25 ∞g; MBC ([1]; MSSA table, isolate MRSA#55): 3.25/3.25 ∞g; MIC ([1]; MSSA table, isolate MRSA#55): 3.25/3.25 ∞g; MBC [1, 14]: 3.25 ∞g; MIC [1, 14]: 1.56 ∞g; MBC [1, 15]: 1.56 ∞g; MIC [1, 15]: 0.78 ∞g; MBC [1, 16]: 3.25/3.25 ∞g; MIC [1, 16]: 3.25/3.25 ∞g; MBC [1, 17]: 1.56 ∞g; MIC [1, 17]: 0.78 ∞g; MBC ([1]; strain BAA 1721): 1.56 ∞g; MIC ([1]; strain BAA 1721): 0.78 ∞g; MBC ([4]; isolate MRSA#1): 3.25; MIC ([4]; isolate MRSA#1): 1.56; MBC ([4]; isolate MRSA#3): 3.25; MIC ([4]; isolate MRSA#3): 1.56; MBC ([4]; isolate MRSA#6): 3.25; MIC ([4]; isolate MRSA#6): 1.56; MBC ([4]; isolate MRSA#15): 3.25; MIC ([4]; isolate MRSA#15): 1.56; MBC ([4]; isolate MRSA#28): 3.25; MIC ([4]; isolate MRSA#28): 1.56; MBC ([4]; isolate MRSA#31): 3.25; MIC ([4]; isolate MRSA#31): 1.56; MBC ([4]; isolate MRSA#37): 1.56; MIC ([4]; isolate MRSA#37): 0.78; MBC ([4]; isolate MRSA#39): 3.25; MIC ([4]; isolate MRSA#39): 1.56; MBC ([4]; isolate MRSA#42): 1.56; MIC ([4]; isolate MRSA#42): 0.78; MBC ([4]; isolate MRSA#43): 1.56; MIC ([4]; isolate MRSA#43): 0.78; MBC ([4]; strain USA 300): 1.56; MIC ([4]; strain USA 300): 0.78

Question: For “Compound III: PNA-CPP conjugate: PNA SEQ ID NO: 51, Glycine-Glycine linker, CPP BXRXRRXRRXRRXR; FIG. 3 (CGTCATACGCGGTCC; all peptide nucleic acid (PNA); PNA conjugated to cell-penetrating peptide via glycine-glycine linker, end not given here, further chemistry not fully specified)”, which “lowest dose at which no MSSA growth was observed (growth curve)” value [3] is on record?
Answer: 25 µg

Question: And the “lowest dose at which no MRSA growth was observed (growth curve)” value [5]?
Answer: 12.5 µg

Question: Which tolerability in mice [6] does the source give for “Compound IV: PNA-CPP conjugate: PNA SEQ ID NO: 51, AEEA linker, homo-arginine CPP BXhRXhRhRXhRhRXhRhRXhR; FIG. 4 (CGTCATACGCGGTCC; all peptide nucleic acid (PNA); homo-arginine cell-penetrating peptide attached via AEEA linker, further chemistry not fully specified)” here?
Answer: well tolerated

Question: What about the “MRSA CFU counts and emergence of resistant strains” value [7] of the same compound?
Answer: reduced MRSA CFUs without emergence of resistant strains

Question: And the “MSSA CFU counts and emergence of resistant strains” value [8]?
Answer: reduced MSSA CFUs without emergence of resistant strains

Question: And the “lowest dose at which no MSSA growth was observed (growth curve)” value [3]?
Answer: 6.25 µg

Question: Which “lowest dose at which no MSSA growth was observed (growth curve)” value [3] does the source give for “Compound V: PNA-CPP conjugate: PNA SEQ ID NO: 51, AEEA linker, D-arginine CPP BXdRXdRdRXdRdRXdRdRXdR; FIG. 5 (CGTCATACGCGGTCC; all peptide nucleic acid (PNA); PNA conjugated to D-arginine cell-penetrating peptide via AEEA linker, end not given here, further chemistry not fully specified)” here?
Answer: 25 µg
